As a reminder, the IC50 is the concentration that inhibits the measured activity by half.

Here are results for 17 compounds from patent US20230257351A1, “SUBSTITUTED N-[…] HAVING P2X4 RECEPTOR ANTAGONISTIC ACTIVITY” (Bayer Aktiengesellschaft, priority 2020, published 2023).

The target in assay [1] is T1, human P2X4 (Homo sapiens, UniProt Q99571).
T1 construct: expressed in transfected cells
T1 sequence (Q99571 1-388): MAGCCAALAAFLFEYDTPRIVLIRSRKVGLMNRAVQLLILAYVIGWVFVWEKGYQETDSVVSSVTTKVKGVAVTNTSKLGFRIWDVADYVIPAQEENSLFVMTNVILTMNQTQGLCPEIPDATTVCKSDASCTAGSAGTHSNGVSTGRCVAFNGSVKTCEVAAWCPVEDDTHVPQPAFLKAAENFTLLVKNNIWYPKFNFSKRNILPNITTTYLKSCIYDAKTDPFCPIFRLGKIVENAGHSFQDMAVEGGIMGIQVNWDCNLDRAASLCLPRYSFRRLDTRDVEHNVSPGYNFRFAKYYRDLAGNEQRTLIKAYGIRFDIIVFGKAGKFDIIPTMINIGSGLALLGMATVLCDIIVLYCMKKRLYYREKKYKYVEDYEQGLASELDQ
Briefly: Human P2X4 HEK Cell FLIPR Assay. The class given is cell-based. As to conditions: HEK293 stably expressing human P2X4, agonist Bz-ATP 3 μM (EC80); for IC50: read-out: Human P2X4 HEK Cells (FLIPR Assay) avg IC50. A digest of the protocol:
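Compounds were preincubated 30 min at room temperature on Fluo8-AM-loaded HEK293 cells stably expressing human P2X4. The response was the calcium fluorescence rise on Bz-ATP addition.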

Assay [2] has as its target T2, rat P2X4 (Rattus norvegicus, UniProt P51577).
T2 construct: expressed in transfected cells
T2 sequence (P51577 1-388): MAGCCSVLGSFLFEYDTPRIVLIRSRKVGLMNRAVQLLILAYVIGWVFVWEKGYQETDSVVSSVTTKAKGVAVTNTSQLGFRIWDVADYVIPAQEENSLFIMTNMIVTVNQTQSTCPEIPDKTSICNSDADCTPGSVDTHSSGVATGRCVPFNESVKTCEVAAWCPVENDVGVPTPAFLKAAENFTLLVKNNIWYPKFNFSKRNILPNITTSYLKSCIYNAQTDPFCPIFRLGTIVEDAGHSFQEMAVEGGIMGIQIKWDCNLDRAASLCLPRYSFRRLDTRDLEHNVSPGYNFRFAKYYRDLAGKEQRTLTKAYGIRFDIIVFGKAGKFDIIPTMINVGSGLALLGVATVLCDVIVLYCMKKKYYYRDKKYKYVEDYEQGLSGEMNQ
As to the kind of experiment: FLIPR Method for Rat P2X4 1321N1 Astrocytoma Cells. The class given is cell-based. As to conditions: 1321N1 stably expressing rat P2X4; agonist MgATP 5 μM (EC80). As for the experimental part: Compounds were tested on a 1321N1 cell line stably expressing rat P2X4. Cells were cultured on collagen-I-coated 384-well plates at a density of 10,000 cells/well and incubated overnight at 37° C., 5% CO2. P2X4 function was assessed by measuring intracellular calcium fluxes caused by Magnesium-ATP (MgATP) using the calcium-chelating dye Fluo8-AM (Molecular Devices) with the Fluorescent Imaging Plate Reader Tetra (FLIPR^Tetra; Molecular Devices CA). On the day of the assay, the medium was removed and the cells were incubated for 30 minutes at 37° C. and 5% CO2 in 30 μl of dye buffer (Hank's balanced salt solution, 10 mM HEPES, 1.8 mM CaCl2, 1 mM MgCl2, 2 mM probenecid, 5 mM D-glucose monohydrate, 5 μM Fluo8-AM, pH=7.4).
Compounds diluted in probenecid buffer (Hank's balanced salt solution, 10 mM HEPES, 1.8 mM CaCl2, 1 mM MgCl2, 2 mM probenecid, 5 mM D-glucose monohydrate, pH=7.4) at ten concentrations ranging from 25 μM to 1 nM (final concentration) were dispensed and incubated for 30 minutes at room temperature. The agonist, MgATP (Sigma-Aldrich Chemie GmbH, DE), was added at a final concentration of 5 μM, representing the EC80 routinely determined. The final assay volume was 50 μl and final DMSO concentration was 0.5%.
The fluorescence intensity reflecting intracellular calcium changes was recorded before and after MgATP addition, at an excitation and emission wavelengths of 470-495 nm and 515-575 nm respectively.
The compounds were tested in triplicates and fluorescence intensity raw data normalized to the agonist control and fitted to the four-parameter logistic equation:
Y=Bottom+(Top−Bottom)/(1+10^((Log IC50−X)*HillSlope))
Assay plate acceptance was based on the signal window (S/B)[…] and the reference compound pIC50 within ±[…] the mean of historic pIC50 of the compound. Failure to meet two of the three criteria determined exclusion of the plate's results. In Table 10 below the results for the assays are reported

On to `CC(=O)N(c1ccc(F)c(F)c1)c1cc(NC(=O)Cc2ccccc2Cl)ccn1` [Example 1, N-{4-[2-(2-chlorophenyl)acetamido]pyridin-2-yl}-N-(3,4-difluorophenyl)acetamide], for which, in assay [1], the “Human P2X4 HEK Cells (FLIPR Assay) avg Efficacy” value (shortened to “Human P2X4 HEK Cells”) turned out to be 89% and the 50% inhibitory concentration (IC50) was determined as 224 nM. Moreover, in assay [2], the half-inhibitory concentration (IC50) is 96.7 nM and the “Rat P2X4 1321N1 Astrocytoma Cells (FLIPR Assay) avg Efficacy” value (“Rat P2X4 1321N1 Astrocytoma Cells” below) came out at 82%.
In the same order, the values of `CC(=O)N(c1cccc(C(F)F)c1)c1cc(NC(=O)Cc2cccc(F)c2Cl)ccn1` [Example 4, N-{4-[2-(2-chloro-3-fluorophenyl)acetamido]pyridin-2-yl}-N-[3-(difluoromethyl)phenyl]acetamide] are 100%, 397 nM, 855 nM and 100%.
In the same order, the values of `CC(=O)N(c1cccc(C(F)F)c1)c1cc(NC(=O)Cc2c(Cl)cccc2Cl)ccn1` [Example 5, N-{4-[2-(2,6-dichlorophenyl)acetamido]pyridin-2-yl}-N-[3-(difluoromethyl)phenyl]acetamide] are 102%, 386 nM, 440 nM and 100%.
For `CC(=O)N(c1cccc(C#N)c1)c1cc(NC(=O)Cc2ccccc2Cl)ccn1` [Example 13, N-{4-[2-(2-chlorophenyl)acetamido]pyridin-2-yl}-N-(3-cyanophenyl)acetamide], in that order: 96%, 289 nM, 790 nM and 93%.
In the case of `CC(=O)N(c1cccc(C#N)c1)c1cc(NC(=O)Cc2c(Cl)cccc2Cl)ccn1` [Example 14, N-(3-cyanophenyl)-N-{4-[2-(2,6-dichlorophenyl)acetamido]pyridin-2-yl)acetamide], in assay [1], the “Human P2X4 HEK Cells” value is reported as 100% and the IC50 is 243 nM. For the same compound, in assay [2], the IC50 turned out to be 201 nM and the “Rat P2X4 1321N1 Astrocytoma Cells” value was found to be 98%.
As for `CC(=O)N(c1cccc(C#N)c1)c1cc(NC(=O)Cc2c(F)cccc2Cl)ccn1` [Example 15, N-{4-[2-(2-chloro-6-fluorophenyl)acetamido]pyridin-2-yl}-N-(3-cyanophenyl)acetamide], in assay [1], the “Human P2X4 HEK Cells” value is 94% and the 50% inhibitory concentration (IC50) turned out to be 408 nM. For the same compound, in assay [2], the half-inhibitory concentration (IC50) amounted to 441 nM and the “Rat P2X4 1321N1 Astrocytoma Cells” value came out at 88%.
For `CC(=O)N(c1ccc(F)c(C#N)c1)c1cc(NC(=O)Cc2ccccc2Cl)ccn1` [Example 21, N-{4-[2-(2-chlorophenyl)acetamido]pyridin-2-yl}-N-(3-cyano-4-fluorophenyl)acetamide], in that order: 91%, 343 nM, 374 nM and 90%.
For `CC(=O)N(c1ccc(F)c(C#N)c1)c1cc(NC(=O)Cc2ccc(F)cc2Cl)ccn1` [Example 22, N-{4-[2-(2-chloro-4-fluorophenyl)acetamido]pyridin-2-yl}-N-(3-cyano-4-fluorophenyl)acetamide], in that order: 98%, 482 nM, 217 nM and 95%.
For `CC(=O)N(c1ccc(F)c(C#N)c1)c1cc(NC(=O)Cc2cccc(F)c2Cl)ccn1` [Example 23, N-{4-[2-(2-chloro-3-fluorophenyl)acetamido]pyridin-2-yl}-N-(3-cyano-4-fluorophenyl)acetamide], in that order: 99%, 356 nM, 483 nM and 96%.
As for `CC(=O)N(c1ccc(F)c(C#N)c1)c1cc(NC(=O)Cc2c(Cl)cccc2Cl)ccn1` [Example 24, N-(3-cyano-4-fluorophenyl)-N-{4-[2-(2,6-dichlorophenyl)acetamido]pyridin-2-yl}acetamide], in assay [1], the “Human P2X4 HEK Cells” value is reported as 100% and the half-maximal inhibitory concentration (IC50) was found to be 346 nM. Moreover, in assay [2], the IC50 is 174 nM and the “Rat P2X4 1321N1 Astrocytoma Cells” value is on record as 99%.
For `CC(=O)N(c1ccccc1)c1cc(NC(=O)Cc2ccccc2Cl)ccn1` [Example 25, N-{4-[2-(2-chlorophenyl)acetamido]pyridin-2-yl}-N-phenylacetamide], in that order: 100%, 524 nM, 851 nM and 100%.
In the same order, the values of `CC(=O)N(c1ccccc1)c1cc(NC(=O)Cc2ccc(F)cc2Cl)ccn1` [Example 26, N-{4-[2-(2-chloro-4-fluorophenyl)acetamido]pyridin-2-yl}-N-phenylacetamide] are 102%, 660 nM, 649 nM and 101%.
In the same order, the values of `CC(=O)N(c1ccccc1)c1cc(NC(=O)Cc2c(Cl)cccc2Cl)ccn1` [Example 27, N-{4-[2-(2,6-dichlorophenyl)acetamido]pyridin-2-yl}-N-phenylacetamide] are 97%, 242 nM, 652 nM and 99%.
In the case of `CC(=O)N(c1ccc(F)cc1)c1cc(NC(=O)Cc2cccc(C)c2C)ccn1` [Example 29, N-{4-[2-(2,3-dimethylphenyl)acetamido]pyridin-2-yl}-N-(4-fluorophenyl)acetamide], in assay [1], the “Human P2X4 HEK Cells” value was 91% and the IC50 came to 391 nM. In addition, in assay [2], the 50% inhibitory concentration (IC50) was determined as 92.5 nM and the “Rat P2X4 1321N1 Astrocytoma Cells” value amounted to 77%.
In the same order, the values of `CC(=O)N(c1ccc(F)cc1)c1cc(NC(=O)Cc2ccccc2C(F)(F)F)ccn1` [Example 30, N-(4-fluorophenyl)-N-(4-{2-[2-(trifluoromethyl)phenyl]acetamido}pyridin-2-yl)acetamide] are 98%, 384 nM, 727 nM and 96%.
Regarding `CC(=O)N(c1cc(F)cc(F)c1)c1cc(NC(=O)Cc2ccc(F)cc2Cl)cnn1` [Example 207, N-{5-[2-(2-chloro-4-fluorophenyl)acetamido]pyridazin-3-yl}-N-(3,5-difluorophenyl)acetamide], in assay [1], the “Human P2X4 HEK Cells” value was found to be 96% and the IC50 amounted to 477 nM.
In the same order, the values of `CC(=O)N(c1cc(F)cc(F)c1)c1cc(NC(=O)Cc2c(F)cccc2Cl)cnn1` [Example 208, N-{5-[2-(2-chloro-6-fluorophenyl)acetamido]pyridazin-3-yl}-N-(3,5-difluorophenyl)acetamide] are 91% and 669 nM.
